Results published in US7718808B2, “Thiazole derivatives” (Kyowa Hakko Kirin Co., Ltd., priority 2003, dated 2010).

Row | Structure (SMILES) | melting point
1 | O=C(c1ccccn1)c1sc(NC(=O)N2CCCCC2)nc1-c1ccco1 [Compound 257, N-[4-(2-Furyl)-5-(pyridin-2-ylcarbonyl)thiazol-2-yl]piperidine-1-carboxamide] | 182 to 185 °C
2 | O=C(Nc1nc(-c2ccco2)c(C(=O)c2ccccn2)s1)c1ccnc(N2CCOCC2)c1 [Compound 219, N-[4-(2-Furyl)-5-(pyridin-2-ylcarbonyl)thiazol-2-yl]-2-morpholinopyridine-4-carboxamide] | 216 to 217 °C
3 | O=C(Nc1nc(-c2ccco2)c(C(=O)c2ccccn2)s1)c1ccnc(Cl)c1 [Compound 214, 2-Chloro-N-[4-(2-furyl)-5-(pyridin-2-ylcarbonyl)thiazol-2-yl]pyridine-4-carboxamide] | 219 to 225 °C
4 | O=C(Nc1nc(-c2ccco2)c(C(=O)c2ccccn2)s1)c1ccoc1 [Compound 238, N-[4-(2-Furyl)-5-(pyridin-2-ylcarbonyl)thiazol-2-yl]furan-3-carboxamide] | 187 to 189 °C
5 | O=C(Nc1nc(-c2ccco2)c(C(=O)C2CCOCC2)s1)c1cccc(Cl)c1 [Compound 470, 3-Chloro-N-[4-(2-furyl)-5-(tetrahydropyran-4-ylcarbonyl)thiazol-2-yl]benzamide] | 210 to 212 °C
6 | Cc1cc(C(=O)Nc2nc(-c3ccco3)c(C(=O)c3ccnc(C)c3)s2)ccn1 [Compound 333, N-[4-(2-Furyl)-5-(2-methylpyridin-4-ylcarbonyl)thiazol-2-yl]-2-methylpyridine-4-carboxamide] | 205 to 229 °C
7 | O=C(Nc1nc(-c2ccco2)c(C(=O)C2CCOCC2)s1)c1ccc(CN2CCCCC2)cc1 [Compound 480, N-[4-(2-Furyl)-5-(tetrahydropyran-4-ylcarbonyl)thiazol-2-yl]-4-(piperidinomethyl)benzamide] | 160 to 162 °C
8 | O=C(Nc1nc(-c2ccco2)c(C(=O)C2CCOCC2)s1)c1cc(F)ccc1F [Compound 491, 2,5-Difluoro-N-[4-(2-furyl)-5-(tetrahydropyran-4-ylcarbonyl)thiazol-2-yl]benzamide] | 172 to 174 °C
9 | O=C(Nc1nc(-c2ccco2)c(C(=O)c2cccnc2)s1)c1ccco1 [Compound 307, N-[4-(2-Furyl)-5-(pyridin-3-ylcarbonyl)thiazol-2-yl]furan-2-carboxamide] | 234 to 236 °C
10 | O=C(Nc1nc(-c2ccco2)c(C(=O)C2CCC2)s1)c1ccco1 [Compound 425, N-[5-(Cyclobutylcarbonyl)-4-(2-furyl)thiazol-2-yl]furan-2-carboxamide] | 188 to 192 °C
11 | O=C(c1sc(NC(=O)C2CCCO2)nc1-c1ccco1)C1CCOCC1 (stereo not drawn) [Compound 523, N-[4-(2-Furyl)-5-(tetrahydropyran-4-ylcarbonyl)thiazol-2-yl]tetrahydrofuran-2-carboxamide] | 115 to 117 °C
12 | O=C(Nc1nc(-c2ccco2)c(C(=O)C2CCOCC2)s1)c1cc(F)cc(F)c1 [Compound 494, 3,5-Difluoro-N-[4-(2-furyl)-5-(tetrahydropyran-4-ylcarbonyl)thiazol-2-yl]benzamide] | 259 to 265 °C
13 | Cc1ccc(C(=O)Nc2nc(-c3ccco3)c(C(=O)c3ccccn3)s2)cn1 [Compound 222, N-[4-(2-Furyl)-5-(pyridin-2-ylcarbonyl)thiazol-2-yl]-2-methylpyridine-5-carboxamide] | 210 to 215 °C
14 | CC(=O)c1sc(NC(=O)c2ccncc2)nc1-c1ccco1 [Compound 377, N-[5-Acetyl-4-(2-furyl)thiazol-2-yl]pyridine-4-carboxamide] | 252 to 259 °C (dec.)
15 | N#Cc1cccc(C(=O)Nc2nc(-c3ccco3)c(C(=O)C3CCOCC3)s2)c1 [Compound 473, 3-Cyano-N-[4-(2-furyl)-5-(tetrahydropyran-4-ylcarbonyl)thiazol-2-yl]benzamide] | 257 to 260 °C
16 | O=C(Nc1nc(-c2ccco2)c(C(=O)c2ccncc2)s1)c1ccncc1 [Compound 329, N-[4-(2-Furyl)-5-(pyridin-4-ylcarbonyl)thiazol-2-yl]pyridine-4-carboxamide] | 276 to 285 °C
17 | O=C(c1ccccn1)c1sc(NC(=O)N2CCOCC2)nc1-c1ccco1 [Compound 256, N-[4-(2-Furyl)-5-(pyridin-2-ylcarbonyl)thiazol-2-yl]morpholine-4-carboxamide] | 144 to 145 °C
18 | O=C(CCl)Nc1nc(-c2ccco2)c(C(=O)c2ccccn2)s1 [Compound 262, 2-Chloro-N-[4-(2-furyl)-5-(pyridin-2-ylcarbonyl)thiazol-2-yl]acetamide] | 184 to 185 °C
19 | COCCN(C)Cc1cc(C(=O)Nc2nc(-c3ccco3)c(-c3ccncc3)s2)ccn1 [Compound 110, N-[4-(2-Furyl)-5-(4-pyridyl)thiazol-2-yl]-2-[N-(2-methoxyethyl)-N-methylaminomethyl]pyridine-4-carboxamide] | 195 to 197 °C
20 | N#Cc1ccc(C(=O)Nc2nc(-c3ccco3)c(C(=O)C3CCC3)s2)cc1 [Compound 426, 4-Cyano-N-[5-(cyclobutylcarbonyl)-4-(2-furyl)thiazol-2-yl]benzamide] | 220 to 225 °C

Row | Structure (SMILES) | melting point
21 | Cn1cc(-c2sc(NC(=O)c3ccncc3)nc2-c2ccco2)ccc1=O [Compound 126, N-[4-(2-Furyl)-5-(1-methyl-2-oxo-1,2-dihydropyridin-5-yl)thiazol-2-yl]pyridine-4-carboxamide] | 294 to 295 °C
22 | O=C(Nc1nc(-c2ccco2)c(C(=O)C2CCOCC2)s1)c1cccc(F)c1 [Compound 467, 3-Fluoro-N-[4-(2-furyl)-5-(tetrahydropyran-4-ylcarbonyl)thiazol-2-yl]benzamide] | 229 to 231 °C
23 | O=C(Nc1nc(-c2ccco2)c(C(=O)C2CCOCC2)s1)c1ccc(N2CCOCC2)nc1 [Compound 503, N-[4-(2-Furyl)-5-(tetrahydropyran-4-ylcarbonyl)thiazol-2-yl]-2-morpholinopyridine-5-carboxamide] | 166 to 170 °C
24 | O=C(Nc1nc(-c2ccco2)c(C(=O)c2ccccc2)s1)c1ccnc(N2CCCCC2)c1 [Compound 146, N-[5-Benzoyl-4-(2-furyl)thiazol-2-yl]-2-piperidinopyridine-4-carboxamide] | 195 to 198 °C
25 | Cn1cc(C(=O)c2sc(NC(=O)c3ccncc3)nc2-c2ccco2)ccc1=O [Compound 360, N-[4-(2-Furyl)-5-(1-methyl-2-oxo-1,2-dihydropyridin-5-ylcarbonyl)thiazol-2-yl]pyridine-4-carboxamide] | 294 to 295 °C
26 | O=C(c1cccnc1)c1sc(NC(=O)C2CC2)nc1-c1ccco1 [Compound 305, N-[4-(2-Furyl)-5-(pyridin-3-ylcarbonyl)thiazol-2-yl]cyclopropanecarboxamide] | 231 to 233 °C
27 | Cn1ccc(C(=O)Nc2nc(-c3ccco3)c(C(=O)c3ccccn3)s2)cc1=O [Compound 233, N-[4-(2-Furyl)-5-(pyridin-2-ylcarbonyl)thiazol-2-yl]-1-methyl-2-oxo-1,2-dihydropyridine-4-carboxamide] | 280 to 285 °C
28 | N#Cc1cccc(C(=O)Nc2nc(-c3ccco3)c(C(=O)c3ccccn3)s2)c1 [Compound 205, 3-Cyano-N-[4-(2-furyl)-5-(pyridin-2-ylcarbonyl)thiazol-2-yl]benzamide] | 234 to 237 °C
29 | O=C(CN1CCC(N2CCCCC2)CC1)Nc1nc(-c2ccco2)c(C(=O)c2ccccn2)s1 [Compound 270, N-[4-(2-Furyl)-5-(pyridin-2-ylcarbonyl)thiazol-2-yl]-2-(4-piperidinopiperidino)acetamide] | 214 to 220 °C (dec.)
30 | O=C(CCc1ccccc1)Nc1nc(-c2ccco2)c(C(=O)C2CCOCC2)s1 [Compound 527, N-[4-(2-Furyl)-5-(tetrahydropyran-4-ylcarbonyl)thiazol-2-yl]-3-phenylpropanamide] | 161 to 164 °C
31 | N#Cc1ccc(C(=O)Nc2nc(-c3ccco3)c(C(=O)c3cccnc3)s2)cc1 [Compound 306, 4-Cyano-N-[4-(2-furyl)-5-(pyridin-3-ylcarbonyl)thiazol-2-yl]benzamide] | 288 to 290 °C
32 | O=C(Nc1nc(-c2ccoc2)c(C(=O)C2CCOCC2)s1)c1ccnc(Cl)c1 [Compound 616, 2-Chloro-N-[4-(3-furyl)-5-(tetrahydropyran-4-ylcarbonyl)thiazol-2-yl]pyridine-4-carboxamide] | 202 to 204 °C
33 | O=C(CN1CCN(c2ccccn2)CC1)Nc1nc(-c2ccco2)c(C(=O)c2ccccn2)s1 [Compound 277, N-[4-(2-Furyl)-5-(pyridin-2-ylcarbonyl)thiazol-2-yl]-2-[4-(2-pyridyl)piperazin-1-yl]acetamide] | 215 to 218 °C
34 | O=C(Nc1nc(-c2ccco2)c(C(=O)C2CCOCC2)s1)c1cccs1 [Compound 517, N-[4-(2-Furyl)-5-(tetrahydropyran-4-ylcarbonyl)thiazol-2-yl]thiophene-2-carboxamide] | 231 to 232 °C
35 | CC(=O)c1cccc(C(=O)Nc2nc(-c3ccco3)c(C(=O)c3ccccn3)s2)c1 [Compound 207, 3-Acetyl-N-[4-(2-furyl)-5-(pyridin-2-ylcarbonyl)thiazol-2-yl]benzamide] | 168 to 169 °C
36 | Cc1ncccc1C(=O)c1sc(NC(=O)c2ccncc2)nc1-c1ccco1 [Compound 310, N-[4-(2-Furyl)-5-(2-methylpyridin-3-ylcarbonyl)thiazol-2-yl]pyridine-4-carboxamide] | 230 to 234 °C
37 | O=C(Nc1nc(-c2ccccc2)c(C(=O)c2ccccn2)s1)c1ccncc1 [Compound 634, N-[4-Phenyl-5-(pyridin-2-ylcarbonyl)thiazol-2-yl]pyridine-4-carboxamide] | 231 to 235 °C
38 | O=C1CCC(C(=O)c2sc(NC(=O)c3ccco3)nc2-c2ccco2)CC1 [Compound 450, N-[4-(2-Furyl)-5-(4-oxocyclohexylcarbonyl)thiazol-2-yl]furan-2-carboxamide] | 232 to 235 °C
39 | O=C(Nc1nc(-c2ccco2)c(C(=O)C2CCOCC2)s1)c1ccc(CN2CCC(O)CC2)cc1 [Compound 481, N-[4-(2-Furyl)-5-(tetrahydropyran-4-ylcarbonyl)thiazol-2-yl]-4-(4-hydroxypiperidinomethyl)benzamide] | 194 to 195 °C
